Assay results taken from patent US6908930B2, “4-substituted 7-AZA-indolin-2-ones and their use as protein kinase inhibitors” (Sugen, Inc., priority 1999, dated 2005).
Counter-ions that a name gives are not always drawn.

Experiments:
[1] = molecular target: T1, HER-2 (Homo sapiens, UniProt P04626); assay: Assay for modulation of HER-2 activity in whole cells (ELISA); assay type: cell-based; details: EGFR/HER-2chimera/#T3-C7 cell lines, EGF stimulated; read-out: HER-2 kinase IC50
T1 construct: expressed in mouse 3T3 (clone C7) cells; P00533 (Epidermal growth factor receptor)
Experimental: Using the following reagents, supplies, and method, the ability of compounds of the invention to affect the activity of HER-2 in whole cells in an ELISA format can be assigned.
EGFR/HER-2chimera/#T3-C7 cell lines are used for this assay. Choose dishes having 80-90% confluence for the experiment. Collect cells by trypsinization and centrifuge at 1000 rpm at room temperature for 5 minutes.
Resuspend cells in starve medium and count with trypan blue. Only viability above 90% is acceptable. Seed cells in starve medium at a density of 2,500 cells per well, 90 μL per well, in a 96 well microtiter plate. Incubate seeded cells in 5% CO2 at 37° C. overnight. Start the assay two days after seeding.
Samples are diluted directly into a polypropylene plate containing starve-DMEM (non-sterile is okay). This dilution will be 1:10 or greater, depending on the samples being screened. The same amount of DMSO is put into the control wells. […] are then transferred to the cell plate at a 1:10 dilution (10 μL of sample and media into 90 μL of starve media). The final DMSO concentration will be 1% or lower.
Ten samples are put into wells 2-11 of row A of the NUNC 96 well polypropylene plate. These wells contain straight starve-DMEM. For a 1:10 dilution, one would put 10 μL of drug into 90 μL of media. The rest of the wells (including the controls) will have a DMSO/media mixture. The percentage of DMSO in this mixture is determined by the first dilution factor, in this case 1:10. The DMSO concentration is therefore 10%. An equal amount of drug and media from row A is put into row B, containing DMSO and media. The same amount is then taken out and put into row C. This is repeated for all rows. These are 1:2 dilutions. All wells are then transferred to the cell plate at a 1:10 dilution (10 μL of sample and media into 90 μL of starve-DMEM. The final DMSO concentration will be 1% or lower. […]
After a 2 hour incubation with the drug, add prepared EGF ligand to cells at 50 μL per well, for a final concentration of 50 nM. Positive control wells (8) receive the same amount of EGF. […] Incubate at 37° C. for 10 minutes.
Remove drug, EGF, and DMEM by dumping in sink. Wash cells once with PBS.
Transfer HNTG* to cells, 100 μL per well. Place on ice for 5 minutes. Meanwhile, remove blocking buffer from ELISA plate and wash as described above. With a pipette tip securely fitted to a micropipettor, scrape cells from plate and homogenize cell material by repeatedly aspirating and dispensing the HNTG* lysis buffer. Transfer lysate to a coated, blocked, washed ELISA plate. Alternatively, one may use a Costar transfer cartridge to transfer lysate to the ELISA plate. Incubate, shaking, at room temperature for one hour.
Remove lysate by dumping in sink, then wash as described earlier. Transfer freshly diluted anti-phosphotyrosine (anti-Ptyr) antibody (1:3000 in TEST) to ELISA plate, 100 μL per well. Incubate, shaking, at room temperature, for 30 minutes.
Remove anti-Ptyr antibody by dumping in sink, then wash as described earlier. Transfer freshly diluted BIOSOURCE antibody to ELISA plate, (1:8000 in TEST), 100 μL per well. Incubate, shaking, at room temperature for 30 minutes.
Remove BIOSOURCE antibody by dumping in sink, then wash as described earlier. Transfer freshly prepared ABTS/H2O2 solution to ELISA plate, […]. Incubate 5-10 minutes while shaking. Remove any bubbles and if necessary, stop reaction with the addition of 100 μL of 0.2 M HCl per well.
Read assay on Dynatech MR7000 ELISA reader. Test Filter: […]; Reference Filter: […]. A preferred template for the placement of controls in this experiment is provided below: […]

[2] = molecular target: T2, PDGFR (Homo sapiens, UniProt P09619); assay: Assay for modulation of PDGFR activity (ELISA); assay type: biochemical; details: for IC50: read-out: bio PDGFR IC50
T2 construct: expressed in transfected cells; host or cells: NIH3T3
Experimental: Using the following reagents, supplies, and methods, the ability of the compounds of the invention to modulate the in vitro activity of the PDGFR can be readily determined in an enzyme-linked immunosorbent assay (ELISA).
Monoclonal anti-PDGFR antibody (28D4C10) is stored at −20° C. in 50 mL tubes prior to use.
Lysates from PDGFR-β expressing NIH3T3 cells are obtained and stored at −80° C. in 1 mL aliquots. PDGFR-β expression in eukaryotic cells is well known in the art. Lysates are prepared by the following method. Place carrier dishes in ice trays, and after cooling, remove the media and replace with ice cold PBS. Remove the PBS and repeat. […] Take up lysate with a pipettor and add to a 30 mL centrifuge tube on ice. Vortex the tubes for 30-60 seconds and then centrifuge for 10 minutes at 7000 rpm in a J-20 rotor which has been precooled to below 0° C. Recover the supernatants and combine them in a 250 mL tube and place on ice. Perform protein determination to measure the total quantity of protein per mL of solution. Aliquot the lysate into 1 mL fractions and store at −80° C.
Coat Corning 96 well ELISA plates with 0.5 μg per well 28D4C10 antibody in a volume of 100 μl PBS overnight, at 4° C. and remove unbound antibody, 28D4C10, from wells by inverting plate to remove liquid. Wash 1× with distilled H2O by filling wells. Pat the plate on a paper towel to remove excess liquid.
Add 150 μL of Blocking Buffer to each well. Incubate for 30 minutes at room temperature, with shaking and wash plate 3× with deionized water, then once with TBST. Pat plate on a paper towel to remove excess liquid and bubbles
Dilute lysate in PBS (10 mg lysate/100 μL PBS). Add 100 μL of diluted lysate to each well. Shake at room temperature for 60 min. Wash plate 3× with deionized water, then once with TBST. Pat plate on a paper towel to remove excess liquid and bubbles.
Add 80 μL Kinase Buffer to ELISA plate containing captured PDGFR.
Dilute drugs/extracts 1:10 (unless specified otherwise) in TBS+10% DMSO in 96-well polypropylene plates. (i.e., 10 μL compound+90 μL (TBS+10% DMSO)). Add 10 μL diluted drugs/extracts to ELISA plate. […] Incubate for 30 minutes while shaking at room temperature.
After 30 minutes stop reaction with addition of 10 μL of 200 mM EDTA pH 8.0 for 20 mM final in well. Wash 4× with deionized water, twice with TBST.
Incubate 30-45 minutes at room temperature, with shaking. Wash plate 3× with deionized water, then once with TBST. Pat plate on a paper towel to remove excess liquid and bubbles.
Incubate 30 minutes at room temperature with shaking. Wash plate 3× with deionized water, then once with TBST. Pat plate on a paper towel to remove excess liquid and bubbles.
Add 100 μL of ABTS/H2O2 solution to each well. Incubate 10 to 30 minutes while shaking. Remove any bubbles. If necessary stop reaction with the addition of 100 μL of 0.2M HCl per well
Read assay on Dynatech MR7000 ELISA reader.

T2 sequence (P09619 33-1106, species assumed): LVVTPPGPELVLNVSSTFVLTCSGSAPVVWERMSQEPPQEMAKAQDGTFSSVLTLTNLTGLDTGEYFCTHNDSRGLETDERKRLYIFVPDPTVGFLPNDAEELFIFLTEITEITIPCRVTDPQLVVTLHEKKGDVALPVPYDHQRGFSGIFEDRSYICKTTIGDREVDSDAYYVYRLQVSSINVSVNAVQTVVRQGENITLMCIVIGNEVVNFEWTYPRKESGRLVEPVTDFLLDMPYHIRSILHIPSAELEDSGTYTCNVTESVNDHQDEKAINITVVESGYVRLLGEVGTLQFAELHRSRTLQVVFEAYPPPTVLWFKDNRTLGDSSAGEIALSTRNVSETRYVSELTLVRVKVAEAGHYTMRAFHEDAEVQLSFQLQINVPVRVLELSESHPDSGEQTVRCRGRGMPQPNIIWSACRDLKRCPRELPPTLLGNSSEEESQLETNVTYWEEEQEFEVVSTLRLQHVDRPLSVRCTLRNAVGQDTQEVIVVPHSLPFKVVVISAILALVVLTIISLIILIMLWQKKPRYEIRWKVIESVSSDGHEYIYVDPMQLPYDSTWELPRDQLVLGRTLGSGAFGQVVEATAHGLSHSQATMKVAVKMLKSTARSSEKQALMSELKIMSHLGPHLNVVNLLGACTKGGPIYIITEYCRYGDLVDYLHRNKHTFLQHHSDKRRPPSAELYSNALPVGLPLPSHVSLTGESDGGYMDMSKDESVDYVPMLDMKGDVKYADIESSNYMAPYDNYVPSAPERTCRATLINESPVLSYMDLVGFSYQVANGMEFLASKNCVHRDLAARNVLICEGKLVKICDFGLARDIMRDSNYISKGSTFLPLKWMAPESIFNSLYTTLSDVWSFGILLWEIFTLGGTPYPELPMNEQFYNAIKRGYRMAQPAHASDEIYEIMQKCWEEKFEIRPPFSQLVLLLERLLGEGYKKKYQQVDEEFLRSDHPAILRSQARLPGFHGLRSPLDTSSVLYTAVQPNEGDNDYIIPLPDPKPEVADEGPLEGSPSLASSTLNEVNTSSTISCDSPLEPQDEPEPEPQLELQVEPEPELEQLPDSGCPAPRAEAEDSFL
T1 sequence (P04626 720-987 limits assumed): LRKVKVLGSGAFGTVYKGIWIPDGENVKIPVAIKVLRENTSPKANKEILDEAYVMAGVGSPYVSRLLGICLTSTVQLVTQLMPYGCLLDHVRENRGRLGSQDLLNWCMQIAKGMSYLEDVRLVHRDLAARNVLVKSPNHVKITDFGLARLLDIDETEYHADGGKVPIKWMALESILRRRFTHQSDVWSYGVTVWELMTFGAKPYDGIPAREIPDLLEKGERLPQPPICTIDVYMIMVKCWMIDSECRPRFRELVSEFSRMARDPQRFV

SMILES | IC50 [1] [µM] | IC50 [2] [µM] | effect on the activity of PDGFR (in words) ([2]; hydrochloride salt)
Cc1c(C(=O)N2CCOCC2)c[nH]c1/C=C1\C(=O)Nc2ncnc(Nc3ccc(F)c(Cl)c3)c21 [Formula 31] | 0.37 | > 20 | 
Cc1cc(C(=O)N2CCOCC2)[nH]c1/C=C1\C(=O)N(C)c2ncnc(Nc3ccc(F)c(Cl)c3)c21 [Formula 34] | > 20 | > 20 | 
Cc1nc[nH]c1C=C1C(=O)Nc2ncnc(N3CCN(C)CC3)c21 [Formula 11] | > 100 | 28.1 | 
Cc1cc(C(=O)NCCN2CCOCC2)[nH]c1C=C1C(=O)Nc2nccc(Nc3ccc(F)c(Cl)c3)c21 [Formula 3, 5-[4-(3-CHLORO-4-FLUORO-PHENYLAMINO)-2-OXO-1,2-DIHYDRO-PYRROLO[2,3-B]PYRIDIN-3-YLIDENEMETHYL]-4-METHYL-1H-PYRROLE-2-CARBOXYLIC ACID (2-MORPHOLIN-4-YL-ETHYL)-AMIDE] | 0.272 | > 100 | 
O=C1Nc2ncnc(Nc3ccc4c(ccn4Cc4ccccc4)c3)c2C1=Cc1ccc(C(=O)NCCN2CCOCC2)[nH]1 [Formula 12, 5-[4-(1-BENZYL-1H-INDOL-5-YLAMINO)-6-OXO-6,7-DIHYDRO-PYRROLO[2,3-D]PYRIMIDIN-5-YLIDENEMETHYL]-1H-PYRROLE-2-CARBOXYLIC ACID (2-MORPHOLIN-4-YL-ETHYL)-AMIDE HYDROCHLORIDE] | 0.28 | > 100 | 
O=C1Nc2ncnc(N3CCCCC3)c2C1=Cc1ccc(C(=O)NCCN2CCOCC2)[nH]1 [Formula 5, 5-(6-OXO-4-PIPERIDIN-1-YL-6,7-DIHYDRO-PYRROLO[2,3-D]PYRIMIDIN-5-YLIDENEMETHYL)-1H-PYRROLE-2-CARBOXYLIC ACID (2-MORPHOLIN-4-YL-ETHYL)-AMIDE] | 61.2 | > 100 | 
O=C1Nc2ncnc(Nc3ccc(F)c(Cl)c3)c2C1=Cc1ccc(C(=O)NCCN2CCOCC2)[nH]1 [Formula 15, 5-[4-(3-CHLORO-4-FLUORO-PHENYLAMINO)-6-OXO-6,7-DIHYDRO-PYRROLO[2,3-D]PYRIMIDIN-5-YLIDENEMETHYL]-1H-PYRROLE-2-CARBOXYLIC ACID (2-MORPHOLIN-4-YL-ETHYL)-AMIDE] | 0.13 | > 100 | 
Cc1nc[nH]c1C=C1C(=O)Nc2ncnc(Nc3ccc(F)c(Cl)c3)c21 [Formula 8] | 0.1 | 16.4 | 
Cc1cc(C)c(C=C2C(=O)Nc3ncnc(Nc4ccc(F)c(Cl)c4)c32)[nH]1 [Formula 9] | 0.01 | > 100 | 
Cc1cc(C(=O)NCCN2CCOCC2)[nH]c1C=C1C(=O)Nc2ncnc(Nc3ccc(F)c(Cl)c3)c21 [Formula 4, 5-[4-(3-CHLORO-4-FLUORO-PHENYLAMINO)-6-OXO-6,7-DIHYDRO-PYRROLO[2,3-D]PYRIMIDIN-5-YLIDENEMETHYL]-4-METHYL-1H-PYRROLE-2-CARBOXYLIC ACID (2-MORPHOLIN-4-YL-ETHYL)-AMIDE HYDROCHLORIDE] | 0.16 | > 100 | 
C#Cc1cccc(Nc2ncnc3c2C(=Cc2[nH]c(C)c(CCCN4CCOCC4)c2C)C(=O)N3)c1 [Formula 18] | 0.03 | 15.3 | 
Cc1cc(C(=O)NCCN2CCOCC2)[nH]c1C=C1C(=O)Nc2ncnc(Nc3ccc4c(ccn4Cc4ccccc4)c3)c21.Cl [Formula 6, 5-[4-(1-BENZYL-1H-INDOL-5-YLAMINO)-6-OXO-6,7-DIHYDRO-PYRROLO[2,3-D]PYRIMIDIN-5-YLIDENEMETHYL]-4-METHYL-1H-PYRROLE-2-CARBOXYLIC ACID (2-MORPHOLIN-4-YL-ETHYL)-AMIDE HYDROCHLORIDE] | 0.13 | > 100 | relatively little effect on the activity of PDGFR
Cc1cc(C(=O)N2CCN(C)CC2)[nH]c1/C=C1\C(=O)N(C)c2ncnc(Nc3ccc(F)c(Cl)c3)c21 [Formula 36] | > 20 | > 20 | 
C#Cc1cccc(Nc2ncnc3c2C(=Cc2ccc(C(=O)NCCN4CCOCC4)[nH]2)C(=O)N3)c1 [Formula 16, 5-[4-(3-ETHYNYL-PHENYLAMINO)-6-OXO-6,7-DIHYDRO-PYRROLO[2,3-D]PYRIMIDIN-5-YLIDENEMETHYL]-1H-PYRROLE-2-CARBOXYLIC ACID (2-MORPHOLIN-4-YL-ETHYL)-AMIDE HYDROCHLORIDE] | 1.02 | > 20 | 
Cc1[nH]c(C=C2C(=O)Nc3ncnc(Nc4ccc(F)c(Cl)c4)c32)c(C)c1CCCN1CCOCC1 [Formula 7, 4-(3-CHLORO-4-FLUORO-PHENYLAMINO)-5-[3,5-DIMETHYL-4-(3-MORPHOLIN-4-YL-PROPYL)-1H-PYRROL-2-YLMETHYLENE]-5,7-DIHYDRO-PYRROLO[2,3-D]PYRIMIDIN-6-ONE HYDROCHLORIDE] | 0.04 | 86 | 
Cc1cc(C(=O)NCCN2CCOCC2)[nH]c1C=C1C(=O)Nc2ncnc(N3CCN(C)CC3)c21 [Formula 10, 4-METHYL-5-[4-(4-METHYL-PIPERAZIN-1-YL)-6-OXO-6,7-DIHYDRO-PYRROLO[2,3-D]PYRIMIDIN-5-YLIDENEMETHYL]-1H-PYRROLE-2-CARBOXYLIC ACID (2-MORPHOLIN-4-YL-ETHYL)-AMIDE] | > 100 | > 100 | 
C#Cc1cccc(Nc2ncnc3c2C(=Cc2[nH]c(C(=O)NCCN4CCOCC4)cc2C)C(=O)N3)c1 [Formula 17, 5-[4-(3-ETHYNYL-PHENYLAMINO)-6-OXO-6,7-DIHYDRO-PYRROLO[2,3-D]PYRIMIDIN-5-YLIDENEMETHYL]-4-METHYL-1H-PYRROLE-2-CARBOXYLIC ACID (2-MORPHOLIN-4-YL-ETHYL)-AMIDE] | 0.1 | > 20 | 
Cc1nc[nH]c1C=C1C(=O)Nc2ncnc(N3CCOCC3)c21 [Formula 14] | > 100 | > 100 | 
